Results as given in article PMC6234229, “The role of loops B and C in determining the potentiation of GABAA receptors by midazolam” (Pharmacology Research & Perspectives, 2018).
“And” between values parts separate entries of the source, which are not always exact repeats. Identical values can stand only once.

Columns and labels:
Test in all cases: Midazolam potentiation of EC10 GABA currents, whole-cell patch clamp, HEK293T
Type in all cases: cell-based
[1] = molecular target: T1, α1(S206I)β2γ2 GABAA receptor (Homo sapiens, UniProt P14867+P18507+P47870, S233I)
T1 construct: expressed in transfected cells; host or cells: HEK293T
Source text: (§1) Human (Homo sapiens) GABAA subunits (α1‐6, β2, γ2s) were subcloned into pcDNA3.1+ vectors with a cytomegalovirus (CMV) promoter. The hβ2 and hα3 sequences were humanized rat (Rattus norvegicus) cDNA with amino acid substitutions made to match the human protein sequence. The α1‐3, α5, β2, and γ2s subunits were a generous gift from Neil L. Harrison (Columbia University Medical Center, NY). The α4 subunit was obtained from GenScript (Piscataway, NJ), and the α6 subunit was a generous gift from Robert L. McDonald (Vanderbilt University, TN). All point mutations (listed in Figure 1C) were introduced using the QuikChange Lightening site‐directed mutagenesis kit (Agilent Technologies, Santa Clara, CA) according to the manufacturer's instructions and were confirmed by sequencing (Eurofins MWG Operon, Louisville, KY).
(§2) Human embryonic kidney cells containing the SV40 T‐antigen (HEK293T) were acquired from American Type Culture Collection (ATCC®, Manassas, VA), catalogue number, CRL3216. HEK293T cells were maintained at 37°C and 5% CO2 in Eagle Minimum Essential Medium (MEM) supplemented with 5% fetal bovine serum (Atlanta Biologicals Inc., Flowery Branch, GA), 40 μM L‐glutamine, 100 U/mL penicillin and 0.1 mM streptomycin. Cells were passaged regularly when they reached 70% confluency using trypsin. Cells were not passaged more than 22 times. New cells were revived from frozen stocks at passage 2‐4. Cells used for in vitro electrophysiology experiments were grown on poly‐D‐lysine‐coated glass coverslips (No.2, VWR, Radnor, PA) and transfected with X‐tremeGENE (Roche Diagnostics, Indianapolis, IN) with the desired receptor subunit cDNAs at a 1:1:1 ratio to express αxβ2γ2s receptors (2 μg total cDNA) and with 0.5 μg green fluorescent protein (GFP) as an expression marker. The γ2s incorporation into receptors was tested with zinc inhibition assays regularly.24 Patch clamp experiments were performed on cells at 24‐72 hours post‐transfection. All experiments were performed at 22°C. Experiments consisted of at least five cells recorded per day from at least two transfections across 3‐4 days to control for cell health and transfection efficiency. At least three cells expressing wild‐type receptors were recorded on days that mutant receptors were tested to provide a time‐matched expression control. All reagents were purchased from Sigma‐Aldrich (St. Louis, MO) unless otherwise stated.
(§3) Extracellular solution contained 161 mM NaCl, 3 mM KCl, 1 mM MgCl2, 1.5 mM CaCl2, 10 mM HEPES, and 6 mM D‐glucose, adjusted to pH 7.4 with NaOH (320‐330 mOsm). […] The perfusion system was controlled by protocols written in pClamp 9 (Molecular Devices, LLC., Sunnyvale, CA). Whole‐cell currents were recorded at ‐60 mV, filtered at 100 Hz and sampled at 200 Hz with a MultiClamp 700B amplifier (Molecular Devices, LLC) and DigiData 1322A (Molecular Devices, LLC) digitizer. […] Cells were recorded with the midazolam protocol no more than two times to avoid desensitization and incomplete washout or irreversible modulation.
(§4) Recordings were analyzed using MATLAB (Math Works, Inc., Natick, MA). […] The maximum peak current, EC50 and Hill coefficient were estimated for assays from each cell. When Hill parameters are estimated from whole‐cell recordings, the changes in the parameters across receptor conditions can be ascribed to the following changes in receptor physiology. Changes in maximum current can be due to changes in the single‐channel conductance or the rate of desensitization. Changes in cell surface receptor expression can cause minor changes in maximum current, but are unlikely to occur in the time course of our experimental protocol. […] More often minor changes in the Hill coefficient are attributed to the altered homogeneity in the receptor population expressed by the HEK293T cell. For example, a shallower Hill coefficient could be caused by a shift in the population of receptors from mostly αβγ receptors to a combination of both αβ and αβγ receptors.

α1β2γ2 GABAA receptor = molecular target: T2, α1β2γ2 GABAA receptor (Homo sapiens, UniProt P14867+P18507+P47870)
T2 construct: expressed in transfected cells; host or cells: HEK293T
Source text: as §1, §2, §3, §4

[2] = molecular target: T3, α2(H101R)β2γ2 GABAA receptor (Homo sapiens, UniProt P18507+P47869+P47870, H129R); conditions: for Midazolam potentiation (%): α2(H101R)
T3 construct: expressed in transfected cells; host or cells: HEK293T
Source text: as §1, §2, §3, §4

[3] = molecular target: T4, α2(S205I)β2γ2 GABAA receptor (Homo sapiens, UniProt P18507+P47869+P47870, S233I)
T4 construct: expressed in transfected cells; host or cells: HEK293T
Source text: as §1, §2, §3, §4

[4] = molecular target: T5, α5(P166T)β2γ2 GABAA receptor (Homo sapiens, UniProt P18507+P31644+P47870, P197T)
T5 construct: expressed in transfected cells; host or cells: HEK293T
Source text: as §1, §2, §3, §4

[5] = molecular target: T6, α5(S209I)β2γ2 GABAA receptor (Homo sapiens, UniProt P18507+P31644+P47870, S240I)
T6 construct: expressed in transfected cells; host or cells: HEK293T
Source text: as §1, §2, §3, §4

α5β2γ2 GABAA receptor = molecular target: T7, α5β2γ2 GABAA receptor (Homo sapiens, UniProt P18507+P31644+P47870)
T7 construct: expressed in transfected cells; host or cells: HEK293T
Source text: as §1, §2, §3, §4

T4 sequence (P47869 29-451 S233I): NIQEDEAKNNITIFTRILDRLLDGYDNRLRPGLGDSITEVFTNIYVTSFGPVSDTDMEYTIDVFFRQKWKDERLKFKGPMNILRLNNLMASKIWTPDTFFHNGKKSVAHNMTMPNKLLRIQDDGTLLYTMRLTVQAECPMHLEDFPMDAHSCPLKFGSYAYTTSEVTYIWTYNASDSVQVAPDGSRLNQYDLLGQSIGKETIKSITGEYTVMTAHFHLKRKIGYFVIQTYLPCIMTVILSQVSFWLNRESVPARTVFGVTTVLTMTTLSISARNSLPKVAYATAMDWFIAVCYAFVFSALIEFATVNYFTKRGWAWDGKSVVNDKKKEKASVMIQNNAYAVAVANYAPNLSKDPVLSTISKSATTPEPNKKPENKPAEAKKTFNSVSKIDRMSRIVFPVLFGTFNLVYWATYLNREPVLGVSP
T4 sequence (P47870 25-512 limits assumed, stated change not applied): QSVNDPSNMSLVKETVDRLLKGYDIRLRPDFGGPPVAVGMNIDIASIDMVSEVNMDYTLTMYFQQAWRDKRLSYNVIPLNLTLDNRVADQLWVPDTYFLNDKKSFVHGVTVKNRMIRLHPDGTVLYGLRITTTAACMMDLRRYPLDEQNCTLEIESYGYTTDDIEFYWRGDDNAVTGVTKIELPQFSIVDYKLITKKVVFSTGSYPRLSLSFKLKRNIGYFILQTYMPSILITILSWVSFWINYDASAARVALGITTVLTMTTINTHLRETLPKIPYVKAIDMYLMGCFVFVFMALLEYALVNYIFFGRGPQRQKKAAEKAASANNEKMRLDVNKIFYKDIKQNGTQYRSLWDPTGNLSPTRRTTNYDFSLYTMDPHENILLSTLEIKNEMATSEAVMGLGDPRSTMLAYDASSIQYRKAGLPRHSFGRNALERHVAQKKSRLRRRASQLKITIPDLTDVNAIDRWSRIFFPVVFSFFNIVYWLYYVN
T4 sequence (P18507 40-467 isoform P18507-1 limits assumed, stated change not applied): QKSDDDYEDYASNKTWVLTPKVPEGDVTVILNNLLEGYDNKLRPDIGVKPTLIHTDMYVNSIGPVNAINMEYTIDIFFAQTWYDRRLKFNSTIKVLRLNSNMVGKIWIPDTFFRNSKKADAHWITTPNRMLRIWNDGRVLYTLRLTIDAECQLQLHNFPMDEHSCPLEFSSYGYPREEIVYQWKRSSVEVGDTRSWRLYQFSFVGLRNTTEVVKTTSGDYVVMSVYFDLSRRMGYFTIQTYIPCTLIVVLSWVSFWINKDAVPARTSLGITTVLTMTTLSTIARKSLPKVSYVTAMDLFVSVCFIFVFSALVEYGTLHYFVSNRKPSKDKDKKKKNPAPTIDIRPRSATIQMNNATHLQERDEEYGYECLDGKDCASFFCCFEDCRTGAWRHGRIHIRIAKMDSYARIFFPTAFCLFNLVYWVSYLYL
T7 sequence (P31644 32-462): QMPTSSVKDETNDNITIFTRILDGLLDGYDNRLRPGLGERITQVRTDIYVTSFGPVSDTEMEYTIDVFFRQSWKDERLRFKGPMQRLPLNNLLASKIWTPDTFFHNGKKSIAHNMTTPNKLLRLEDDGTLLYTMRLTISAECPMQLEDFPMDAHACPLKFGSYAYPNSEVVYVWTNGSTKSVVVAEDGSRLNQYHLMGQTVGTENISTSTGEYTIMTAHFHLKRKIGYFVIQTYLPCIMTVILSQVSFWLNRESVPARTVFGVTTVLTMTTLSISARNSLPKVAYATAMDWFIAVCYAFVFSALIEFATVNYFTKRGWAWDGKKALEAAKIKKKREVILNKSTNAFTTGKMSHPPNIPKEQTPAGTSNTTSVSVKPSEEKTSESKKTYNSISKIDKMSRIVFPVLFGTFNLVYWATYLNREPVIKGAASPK
T7 sequence (P47870 26-474 isoform P47870-1 limits assumed): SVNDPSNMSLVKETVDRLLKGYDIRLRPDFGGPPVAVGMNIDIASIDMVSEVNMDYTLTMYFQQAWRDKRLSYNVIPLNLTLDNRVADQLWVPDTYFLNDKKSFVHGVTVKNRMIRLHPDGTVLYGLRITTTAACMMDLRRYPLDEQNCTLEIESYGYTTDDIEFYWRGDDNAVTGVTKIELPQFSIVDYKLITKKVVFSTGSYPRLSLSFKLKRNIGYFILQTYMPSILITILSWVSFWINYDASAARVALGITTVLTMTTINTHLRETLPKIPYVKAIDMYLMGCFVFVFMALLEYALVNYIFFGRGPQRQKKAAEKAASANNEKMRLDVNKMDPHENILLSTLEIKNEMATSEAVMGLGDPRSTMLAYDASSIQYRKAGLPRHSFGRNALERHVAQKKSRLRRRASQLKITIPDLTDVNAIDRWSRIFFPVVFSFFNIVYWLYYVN
T7 sequence (P18507 40-467 isoform P18507-1 limits assumed): as the sequence (P18507 40-467 isoform P18507-1 limits assumed, stated change not applied) above
T2 sequence (P14867 28-456): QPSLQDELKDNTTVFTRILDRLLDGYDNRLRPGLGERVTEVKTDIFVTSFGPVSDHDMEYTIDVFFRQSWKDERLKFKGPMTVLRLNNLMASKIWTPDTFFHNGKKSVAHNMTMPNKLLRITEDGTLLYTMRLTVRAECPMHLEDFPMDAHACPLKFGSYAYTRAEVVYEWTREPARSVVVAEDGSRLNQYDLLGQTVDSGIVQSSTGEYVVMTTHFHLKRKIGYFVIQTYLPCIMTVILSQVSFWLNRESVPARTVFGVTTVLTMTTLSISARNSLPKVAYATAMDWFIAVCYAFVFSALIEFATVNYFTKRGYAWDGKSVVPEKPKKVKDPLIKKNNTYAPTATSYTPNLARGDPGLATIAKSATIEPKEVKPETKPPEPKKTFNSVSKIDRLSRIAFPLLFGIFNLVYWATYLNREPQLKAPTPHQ
T2 sequence (P47870 26-474 isoform P47870-1 limits assumed): as the sequence (P47870 26-474 isoform P47870-1 limits assumed) above
T2 sequence (P18507 40-467 isoform P18507-1 limits assumed): as the sequence (P18507 40-467 isoform P18507-1 limits assumed, stated change not applied) above
T6 sequence (P31644 32-462 S240I): as the sequence (P31644 32-462) above, with S209I counted along it
T6 sequence (P47870 26-474 isoform P47870-1 limits assumed, stated change not applied): as the sequence (P47870 26-474 isoform P47870-1 limits assumed) above
T6 sequence (P18507 40-467 isoform P18507-1 limits assumed, stated change not applied): as the sequence (P18507 40-467 isoform P18507-1 limits assumed, stated change not applied) above
T5 sequence (P31644 32-462 P197T): as the sequence (P31644 32-462) above, with P166T counted along it
T5 sequence (P47870 26-474 isoform P47870-1 limits assumed, stated change not applied): as the sequence (P47870 26-474 isoform P47870-1 limits assumed) above
T5 sequence (P18507 40-467 isoform P18507-1 limits assumed, stated change not applied): as the sequence (P18507 40-467 isoform P18507-1 limits assumed, stated change not applied) above
T1 sequence (P14867 28-456 S233I): as the sequence (P14867 28-456) above, with S206I counted along it
T1 sequence (P47870 25-512 limits assumed, stated change not applied): as the sequence (P47870 25-512 limits assumed, stated change not applied) above
T1 sequence (P18507 40-467 isoform P18507-1 limits assumed, stated change not applied): as the sequence (P18507 40-467 isoform P18507-1 limits assumed, stated change not applied) above
T3 sequence (P47869 29-451 H129R): as the sequence (P47869 29-451 S233I) above, with H101R, I205S counted along it
T3 sequence (P47870 25-512 limits assumed): as the sequence (P47870 25-512 limits assumed, stated change not applied) above
T3 sequence (P18507 40-467 isoform P18507-1 limits assumed, stated change not applied): as the sequence (P18507 40-467 isoform P18507-1 limits assumed, stated change not applied) above

Cc1ncc2n1-c1ccc(Cl)cc1C(c1ccccc1F)=NC2 [midazolam]
EC50 [1]: 59.8 ± 4.11 nM
Midazolam potentiation (%) ([1]; 10 nM MDZ + EC10 GABA, α1(S206I)): 13.37 ± 5.70%
Midazolam potentiation (%) ([1]; 50 nM MDZ + EC10 GABA, α1(S206I)): 44.00 ± 10.96%
Midazolam potentiation (%) ([1]; 100 nM MDZ + EC10 GABA, α1(S206I)): 80.14 ± 17.04%
Midazolam potentiation (%) ([1]; 500 nM MDZ + EC10 GABA, α1(S206I)): 107.07 ± 22.95%
Midazolam potentiation (%) ([1]; 1000 nM MDZ + EC10 GABA, α1(S206I)): 108.21 ± 24.13%
Max potentiation (%) ([1]; α1(S206I), Hill fit, midazolam 10-1000 nM + EC10 GABA): 135.8 ± 23.8% and 135.8 ± 23.78 %
Hill coefficient ([1]; α1(S206I), midazolam Hill fit): 1.568 ± 0.199
EC50 (α1β2γ2 GABAA receptor): 71.4 ± 5.8 nM
Midazolam potentiation (%) (α1β2γ2 GABAA receptor; 10 nM MDZ + EC10 GABA, α1β2γ2): 22.06 ± 3.46%
Midazolam potentiation (%) (α1β2γ2 GABAA receptor; 50 nM MDZ + EC10 GABA, α1β2γ2): 71.67 ± 6.40%
Midazolam potentiation (%) (α1β2γ2 GABAA receptor; 100 nM MDZ + EC10 GABA, α1β2γ2): 145.94 ± 13.37%
Midazolam potentiation (%) (α1β2γ2 GABAA receptor; 500 nM MDZ + EC10 GABA, α1β2γ2): 201.94 ± 16.80%
Midazolam potentiation (%) (α1β2γ2 GABAA receptor; 1000 nM MDZ + EC10 GABA, α1β2γ2): 215.35 ± 26.71%
Max potentiation (%) (α1β2γ2 GABAA receptor; α1β2γ2, Hill fit, midazolam 10-1000 nM + EC10 GABA): 203.0 ± 17.6%
Hill coefficient (α1β2γ2 GABAA receptor; α1β2γ2, midazolam Hill fit): 1.765 ± 0.165
Midazolam potentiation (%) ([2]; 10 nM MDZ + EC10 GABA): 9.85 ± 5.77%
Midazolam potentiation (%) ([2]; 50 nM MDZ + EC10 GABA): 21.72 ± 8.75%
Midazolam potentiation (%) ([2]; 100 nM MDZ + EC10 GABA): 25.17 ± 9.58%
Midazolam potentiation (%) ([2]; 500 nM MDZ + EC10 GABA): 30.08 ± 10.31%
Midazolam potentiation (%) ([2]; 1000 nM MDZ + EC10 GABA): 31.81 ± 11.79%
responsiveness to midazolam potentiation ([2]; printed α2(H102R)): abolished the ability of receptors to respond to midazolam potentiation
EC50 [3]: 41.7 ± 4.99 nM
Midazolam potentiation (%) ([3]; 10 nM MDZ + EC10 GABA, α2(S205I)): 21.06 ± 6.24%
Midazolam potentiation (%) ([3]; 50 nM MDZ + EC10 GABA, α2(S205I)): 54.26 ± 10.25%
Midazolam potentiation (%) ([3]; 100 nM MDZ + EC10 GABA, α2(S205I)): 86.20 ± 14.74%
Midazolam potentiation (%) ([3]; 500 nM MDZ + EC10 GABA, α2(S205I)): 102.63 ± 19.49%
Midazolam potentiation (%) ([3]; 1000 nM MDZ + EC10 GABA, α2(S205I)): 97.62 ± 20.12%
Max potentiation (%) ([3]; α2(S205I), Hill fit, midazolam 10-1000 nM + EC10 GABA): 116.4 ± 23.0%
Hill coefficient ([3]; α2(S205I), midazolam Hill fit): 1.362 ± 0.140
EC50 [4]: 53.3 ± 5.54 nM
Midazolam potentiation (%) ([4]; 10 nM MDZ + EC10 GABA, α5(P166T)): 13.32 ± 1.68%
Midazolam potentiation (%) ([4]; 50 nM MDZ + EC10 GABA, α5(P166T)): 54.02 ± 5.66%
Midazolam potentiation (%) ([4]; 100 nM MDZ + EC10 GABA, α5(P166T)): 106.37 ± 15.09%
Midazolam potentiation (%) ([4]; 500 nM MDZ + EC10 GABA, α5(P166T)): 134.76 ± 21.59%
Midazolam potentiation (%) ([4]; 1000 nM MDZ + EC10 GABA, α5(P166T)): 141.51 ± 25.59%
Max potentiation (%) ([4]; α5(P166T), Hill fit, midazolam 10-1000 nM + EC10 GABA): 140.7 ± 23.7%
Hill coefficient ([4]; α5(P166T), midazolam Hill fit): 3.661 ± 1.897
EC50 [5]: 65.4 ± 2.76 nM
Midazolam potentiation (%) ([5]; 10 nM MDZ + EC10 GABA, α5(S209I)): 15.95 ± 6.58%
Midazolam potentiation (%) ([5]; 50 nM MDZ + EC10 GABA, α5(S209I)): 62.43 ± 11.51%
Midazolam potentiation (%) ([5]; 100 nM MDZ + EC10 GABA, α5(S209I)): 127.16 ± 19.87%
Midazolam potentiation (%) ([5]; 500 nM MDZ + EC10 GABA, α5(S209I)): 168.94 ± 23.17%
Midazolam potentiation (%) ([5]; 1000 nM MDZ + EC10 GABA, α5(S209I)): 170.92 ± 25.92%
increase of maximum midazolam potentiation relative to wildtype ([5]; α5(S209I) vs α5β2γ2): approximately 63%
Max potentiation (%) ([5]; α5(S209I), Hill fit, midazolam 10-1000 nM + EC10 GABA): 175.1 ± 26.6%
Hill coefficient ([5]; α5(S209I), midazolam Hill fit): 2.232 ± 0.334
EC50 (α5β2γ2 GABAA receptor): 52.8 ± 3.48 nM
Midazolam potentiation (%) (α5β2γ2 GABAA receptor; 10 nM MDZ + EC10 GABA, α5β2γ2): 20.47 ± 10.62%
Midazolam potentiation (%) (α5β2γ2 GABAA receptor; 50 nM MDZ + EC10 GABA, α5β2γ2): 63.82 ± 19.54%
Midazolam potentiation (%) (α5β2γ2 GABAA receptor; 100 nM MDZ + EC10 GABA, α5β2γ2): 113.29 ± 28.44%
Midazolam potentiation (%) (α5β2γ2 GABAA receptor; 500 nM MDZ + EC10 GABA, α5β2γ2): 130.90 ± 29.52%
Midazolam potentiation (%) (α5β2γ2 GABAA receptor; 1000 nM MDZ + EC10 GABA, α5β2γ2): 123.12 ± 26.08%
Max potentiation (%) (α5β2γ2 GABAA receptor; α5β2γ2, Hill fit, midazolam 10-1000 nM + EC10 GABA): 107.9 ± 20.3%
Hill coefficient (α5β2γ2 GABAA receptor; α5β2γ2, midazolam Hill fit): 2.632 ± 0.329
